According to publication PMC5884507, “A group of Populus trichocarpa DUF231 proteins exhibit differential O-acetyltransferase activities toward xylan” (PLoS ONE, 2018):

Assays:
Assay in all cases: radiolabelled acetyl transfer, scintillation counting
Type in all cases: biochemical
Settings in all cases: 0.1 mM 14C-acetyl-CoA, 50 mM HEPES pH 7.0, 37 C, 4 hr
[1] = target: T1, PtrXOAT9 (Populus trichocarpa, UniProt A0A2K1ZDC4)
T1 construct: gene XOAT9; lumenal catalytic domain 52-437, transmembrane region removed; Igkappa leader, C-terminal c-myc and His6; secreted by HEK293F, nickel-purified

[2] = target: T2, PtrXOAT4 (Populus trichocarpa, UniProt A0A2R4P4M0)
T2 construct: gene XOAT4; lumenal catalytic domain 37-428, transmembrane region removed; Igkappa leader, C-terminal c-myc and His6; secreted by HEK293F, nickel-purified

[3] = target: T3, PtrXOAT5 (Populus trichocarpa, UniProt A0A2R4P4M8)
T3 construct: gene XOAT5; lumenal catalytic domain 33-470, transmembrane region removed; Igkappa leader, C-terminal c-myc and His6; secreted by HEK293F, nickel-purified

[4] = target: T4, PtrXOAT7 (Populus trichocarpa, UniProt B9IGB9)
T4 construct: gene XOAT7; lumenal catalytic domain 38-426, transmembrane region removed; Igkappa leader, C-terminal c-myc and His6; secreted by HEK293F, nickel-purified

[5] = target: T5, PtrXOAT10 (Populus trichocarpa, UniProt A0A2R4P4N0)
T5 construct: gene XOAT10; lumenal catalytic domain 55-438, transmembrane region removed; Igkappa leader, C-terminal c-myc and His6; secreted by HEK293F, nickel-purified

[6] = target: T6, PtrXOAT6 (Populus trichocarpa, UniProt A0A2R4P4M4)
T6 construct: gene XOAT6; lumenal catalytic domain 36-446, transmembrane region removed; Igkappa leader, C-terminal c-myc and His6; secreted by HEK293F, nickel-purified

[7] = target: T7, PtrXOAT8 (Populus trichocarpa, UniProt A0A2R4P4N1)
T7 construct: gene XOAT8; lumenal catalytic domain 33-415, transmembrane region removed; Igkappa leader, C-terminal c-myc and His6; secreted by HEK293F, nickel-purified
T7 sequence (A0A2R4P4N1 entry or part of it): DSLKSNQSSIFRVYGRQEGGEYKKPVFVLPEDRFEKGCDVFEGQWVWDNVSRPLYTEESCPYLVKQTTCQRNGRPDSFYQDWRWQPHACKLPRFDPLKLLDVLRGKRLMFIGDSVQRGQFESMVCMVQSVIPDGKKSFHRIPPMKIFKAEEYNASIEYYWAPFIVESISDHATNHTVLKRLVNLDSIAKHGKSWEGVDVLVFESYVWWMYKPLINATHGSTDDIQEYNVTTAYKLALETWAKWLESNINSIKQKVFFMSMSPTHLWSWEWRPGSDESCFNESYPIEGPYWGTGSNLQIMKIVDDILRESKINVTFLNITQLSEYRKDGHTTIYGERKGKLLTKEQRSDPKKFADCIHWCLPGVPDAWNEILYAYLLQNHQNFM

T3 sequence (A0A2R4P4M8 entry or part of it): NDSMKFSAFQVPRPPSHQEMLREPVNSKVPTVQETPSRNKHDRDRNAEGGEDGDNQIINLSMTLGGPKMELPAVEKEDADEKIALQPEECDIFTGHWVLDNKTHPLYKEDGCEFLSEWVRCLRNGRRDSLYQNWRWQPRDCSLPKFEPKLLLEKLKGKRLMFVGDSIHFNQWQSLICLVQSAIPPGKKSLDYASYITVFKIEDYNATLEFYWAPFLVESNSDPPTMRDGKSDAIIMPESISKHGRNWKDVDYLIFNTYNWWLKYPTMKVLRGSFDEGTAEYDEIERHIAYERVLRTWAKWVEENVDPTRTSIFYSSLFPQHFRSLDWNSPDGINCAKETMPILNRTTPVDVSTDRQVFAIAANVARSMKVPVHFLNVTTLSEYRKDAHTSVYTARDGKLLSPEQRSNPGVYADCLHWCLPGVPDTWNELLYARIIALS
T2 sequence (A0A2R4P4M0 entry or part of it): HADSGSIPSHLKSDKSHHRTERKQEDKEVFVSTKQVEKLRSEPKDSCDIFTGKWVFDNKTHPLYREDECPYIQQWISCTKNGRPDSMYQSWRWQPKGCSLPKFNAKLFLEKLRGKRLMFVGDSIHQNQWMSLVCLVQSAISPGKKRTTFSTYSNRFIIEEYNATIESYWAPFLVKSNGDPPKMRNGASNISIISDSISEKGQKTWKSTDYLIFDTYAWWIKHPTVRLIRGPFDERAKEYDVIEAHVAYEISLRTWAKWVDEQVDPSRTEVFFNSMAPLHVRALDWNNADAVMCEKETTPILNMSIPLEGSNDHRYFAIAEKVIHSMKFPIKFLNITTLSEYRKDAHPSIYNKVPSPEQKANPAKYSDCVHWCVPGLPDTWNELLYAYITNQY
T5 sequence (A0A2R4P4N0 entry or part of it): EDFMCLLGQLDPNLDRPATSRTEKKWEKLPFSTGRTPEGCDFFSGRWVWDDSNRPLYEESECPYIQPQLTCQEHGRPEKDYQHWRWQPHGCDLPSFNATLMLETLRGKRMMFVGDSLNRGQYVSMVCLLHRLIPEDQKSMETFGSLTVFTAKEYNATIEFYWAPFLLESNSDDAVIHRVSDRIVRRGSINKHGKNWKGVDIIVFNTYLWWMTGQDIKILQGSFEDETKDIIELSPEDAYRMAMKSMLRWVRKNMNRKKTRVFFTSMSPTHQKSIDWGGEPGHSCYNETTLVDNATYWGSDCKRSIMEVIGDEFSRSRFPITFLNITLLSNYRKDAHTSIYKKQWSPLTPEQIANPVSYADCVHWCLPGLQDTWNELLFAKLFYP
T4 sequence (B9IGB9 entry or part of it): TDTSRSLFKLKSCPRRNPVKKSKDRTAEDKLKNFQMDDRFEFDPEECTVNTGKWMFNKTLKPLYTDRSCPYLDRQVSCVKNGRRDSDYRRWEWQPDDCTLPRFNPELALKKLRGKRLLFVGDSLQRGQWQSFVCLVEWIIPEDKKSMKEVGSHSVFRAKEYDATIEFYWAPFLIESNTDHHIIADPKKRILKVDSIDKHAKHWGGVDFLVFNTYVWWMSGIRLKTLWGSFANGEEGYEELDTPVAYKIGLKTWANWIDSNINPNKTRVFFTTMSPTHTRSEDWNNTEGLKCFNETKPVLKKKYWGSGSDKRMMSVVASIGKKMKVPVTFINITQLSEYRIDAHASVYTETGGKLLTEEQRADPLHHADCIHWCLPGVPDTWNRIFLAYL
T6 sequence (A0A2R4P4M4 entry or part of it): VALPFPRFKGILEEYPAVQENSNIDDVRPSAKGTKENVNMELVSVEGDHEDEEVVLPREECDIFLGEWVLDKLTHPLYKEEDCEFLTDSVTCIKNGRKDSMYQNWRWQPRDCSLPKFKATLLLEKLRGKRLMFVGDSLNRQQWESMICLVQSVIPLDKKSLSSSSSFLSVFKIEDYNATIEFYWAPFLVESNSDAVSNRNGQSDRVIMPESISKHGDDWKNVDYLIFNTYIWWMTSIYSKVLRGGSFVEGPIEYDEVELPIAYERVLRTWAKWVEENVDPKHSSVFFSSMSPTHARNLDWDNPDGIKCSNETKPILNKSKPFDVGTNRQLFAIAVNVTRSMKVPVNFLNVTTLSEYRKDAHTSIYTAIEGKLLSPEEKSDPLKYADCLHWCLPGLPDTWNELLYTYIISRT
T1 sequence (A0A2K1ZDC4 entry or part of it): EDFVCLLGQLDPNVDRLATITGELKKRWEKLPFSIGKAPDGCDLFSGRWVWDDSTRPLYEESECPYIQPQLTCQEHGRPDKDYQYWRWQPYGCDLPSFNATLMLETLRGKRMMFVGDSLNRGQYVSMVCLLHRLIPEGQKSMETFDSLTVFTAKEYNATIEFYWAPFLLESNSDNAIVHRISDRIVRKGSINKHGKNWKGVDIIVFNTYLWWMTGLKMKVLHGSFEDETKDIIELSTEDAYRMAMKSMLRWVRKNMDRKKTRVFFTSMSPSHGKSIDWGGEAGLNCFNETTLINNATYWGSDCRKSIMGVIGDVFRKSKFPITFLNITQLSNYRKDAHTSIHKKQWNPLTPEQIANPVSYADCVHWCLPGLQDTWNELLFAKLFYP

OC1OC[C@@H](O[C@@H]2OC[C@@H](O[C@@H]3OC[C@@H](O[C@@H]4OC[C@@H](O[C@@H]5OC[C@@H](O[C@@H]6OC[C@@H](O)[C@H](O)[C@H]6O)[C@H](O)[C@H]5O)[C@H](O)[C@H]4O)[C@H](O)[C@H]3O)[C@H](O)[C@H]2O)[C@H](O)[C@H]1O (stereo partly shown) [Xyl6, xylohexaose]
radiolabelled acetyl transfer, scintillation counting [1]: PtrXOAT4 to PtrXOAT10 had a low level of activity | radiolabelled acetyl transfer, scintillation counting [2]: PtrXOAT4 to PtrXOAT10 had a low level of activity | radiolabelled acetyl transfer, scintillation counting [3]: PtrXOAT4 to PtrXOAT10 had a low level of activity | radiolabelled acetyl transfer, scintillation counting [4]: PtrXOAT4 to PtrXOAT10 had a low level of activity | radiolabelled acetyl transfer, scintillation counting [5]: PtrXOAT4 to PtrXOAT10 had a low level of activity | radiolabelled acetyl transfer, scintillation counting [6]: PtrXOAT4 to PtrXOAT10 had a low level of activity | radiolabelled acetyl transfer, scintillation counting [7]: PtrXOAT4 to PtrXOAT10 had a low level of activity
